Measurements: patent US7300939B2, “Substituted 1-propiolylpiperazine compounds, their preparation and use” (Gruenenthal GmbH, priority 2005, dated 2007)
Structures can show the parent of a compound that is named as a salt.

target: T1, mGluR5 receptor (Sus scrofa, UniProt I3LUI7); assay: [3H]-MPEP binding in the mGluR5 receptor binding assay (pig brain homogenate); conditions: 10 μM; pig brain homogenate; 5 nM [3H]-MPEP
T1 construct: from tissue; host or cells: pig brain halves without medulla, cerebellum and pons
T1 sequence (I3LUI7 19-1212): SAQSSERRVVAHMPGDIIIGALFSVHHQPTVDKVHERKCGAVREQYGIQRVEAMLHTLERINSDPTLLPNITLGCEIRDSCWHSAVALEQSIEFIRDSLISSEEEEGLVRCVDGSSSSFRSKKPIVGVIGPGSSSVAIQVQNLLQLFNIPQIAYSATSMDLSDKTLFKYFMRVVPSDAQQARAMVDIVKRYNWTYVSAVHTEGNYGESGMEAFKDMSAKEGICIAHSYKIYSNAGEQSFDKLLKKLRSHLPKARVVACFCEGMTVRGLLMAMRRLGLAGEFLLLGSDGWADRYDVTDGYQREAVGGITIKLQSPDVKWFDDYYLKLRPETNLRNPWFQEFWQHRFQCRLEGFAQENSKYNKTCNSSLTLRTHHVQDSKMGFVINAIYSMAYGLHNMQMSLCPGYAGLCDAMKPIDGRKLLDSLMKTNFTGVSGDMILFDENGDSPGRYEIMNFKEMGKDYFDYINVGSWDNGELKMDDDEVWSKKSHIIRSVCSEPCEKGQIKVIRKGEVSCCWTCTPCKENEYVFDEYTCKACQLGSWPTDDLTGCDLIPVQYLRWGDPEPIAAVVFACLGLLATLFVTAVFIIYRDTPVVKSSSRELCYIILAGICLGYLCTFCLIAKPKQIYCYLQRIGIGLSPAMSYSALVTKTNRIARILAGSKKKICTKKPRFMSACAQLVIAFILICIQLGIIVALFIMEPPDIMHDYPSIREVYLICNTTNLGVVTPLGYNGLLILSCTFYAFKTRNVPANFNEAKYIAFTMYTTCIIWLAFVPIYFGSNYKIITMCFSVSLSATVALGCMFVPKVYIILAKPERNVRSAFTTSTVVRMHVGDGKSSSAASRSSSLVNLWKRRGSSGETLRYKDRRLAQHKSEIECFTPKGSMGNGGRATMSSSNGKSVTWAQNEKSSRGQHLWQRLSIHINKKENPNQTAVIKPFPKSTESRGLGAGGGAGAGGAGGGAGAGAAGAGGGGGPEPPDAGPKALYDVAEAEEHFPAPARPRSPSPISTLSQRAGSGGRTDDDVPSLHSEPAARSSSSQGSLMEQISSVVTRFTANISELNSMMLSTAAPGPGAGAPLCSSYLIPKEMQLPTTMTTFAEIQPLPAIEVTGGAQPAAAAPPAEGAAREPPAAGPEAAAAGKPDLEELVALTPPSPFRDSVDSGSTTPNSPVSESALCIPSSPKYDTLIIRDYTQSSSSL
Protocol: I. Method the Determination of the Inhibition of the [^3H]-MPEP Binding in the mGluR5 Receptor Binding Assay
Pig brain homogenate is prepared by homogenization (Polytron PT 3000, Kinematica AG, 10,000 revolutions per minute 90 seconds) of pig brain halves without medulla, cerebellum and pons in a buffer solution having a pH of 8.0 (30 mM of hepes, Sigma, order no. H3375+1 tablet of Complete to 100 ml, Roche Diagnostics, order no. 1836145) in a ratio of 1:20 (brain weight/volume) and differential centrifugation at 900×g and 40,000×g. In each case 450 μg of protein from brain homogenate are incubated with 5 nM [^3H]-MPEP (Tocris, order no. R1212) (MPEP=2-methyl-6-(3-methoxyphenyl)ethynylpyridine) and the compounds to be investigated (10 μM in the test) in a buffer solution (as above) in 250 μl incubation batches in 96-well microtiter plates at room temperature 60 min.
Thereafter, the batches are filtered with the aid of a Brandel cell harvester (Brandel, Robotic 9600 model) onto Unifilter plates with glass fiber filter mats (Perkin Elmer, order no. 6005177) and then rinsed with buffer solution (as above) 3 times with 250 μl per sample each time. The filter plates are then dried 60 min at 55° C. 30 μl Ultima Gold™ scintillator (Packard BioScience, order no. 6013159) are subsequently added per well and, after 3 hours, the samples are measured on a β-counter (Mikrobeta, Perkin Elmer). The non-specific binding is determined by addition of 10 μM of MPEP (Tocris, order no. 1212).

SMILES | mGluR5-receptor (% inhibition 10 μM) in pigs [%]
O=C(C#Cc1cccc(O)c1)N1CCN(c2nccs2)CC1 [Example AAA43, 4-(Thiazol-2-yl)-1-(3-(3-hydroxyphenyl)propiolyl)piperazine] | 83
CC(=O)Nc1cccc(C#CC(=O)N2CCN(c3nccs3)CC2)c1 [Example AAA44, 4-(Thiazol-2-yl)-1-(3-(3-acetaminophenyl)propiolyl)piperazine] | 30
COC(=O)c1cccc(C#CC(=O)N2CCN(c3nccs3)CC2)c1 [Example AAA49, 4-(Thiazol-2-yl)-1-(3-(3-carboxyphenyl)propiolyl)piperazine methyl ester] | 43
Cc1ccccc1C#CC(=O)N1CCN(c2nccs2)CC1.Cl [Example AAA53, 4-(Thiazol-2-yl)-1-(3-(2-tolyl)propiolyl)piperazine hydrochloride] | 33
Cc1ccc(C#CC(=O)N2CCN(c3nccs3)CC2)cc1.Cl [Example AAA55, 4-(Thiazol-2-yl)-1-(3-(4-tolyl)propiolyl)piperazine hydrochloride] | 41
Cl.O=C(C#Cc1ccccc1C(F)(F)F)N1CCN(c2nccs2)CC1 [Example AAA57, 4-(Thiazol-2-yl)-1-(3-(2-trifluoromethylphenyl)propiolyl)piperazine hydrochloride] | 81
O=C(C#Cc1ccc(F)cc1)N1CCN(c2nccs2)CC1 [Example AAA61, 4-(Thiazol-2-yl)-1-(3-(4-fluorophenyl)propiolyl)piperazine] | 76
CC1CN(c2nccs2)CCN1C(=O)C#Cc1ccccc1 (centres unmarked) [Example AAA63, 2-Methyl-4-(thiazol-2-yl)-1-(3-phenylpropiolyl)piperazine] | 89
C[C@H]1CN(c2nccs2)CCN1C(=O)C#Cc1ccccc1 [Example AAA64, (S)-2-Methyl-4-(thiazol-2-yl)-1-(3-phenylpropiolyl)piperazine] | 72
C[C@@H]1CN(c2nccs2)CCN1C(=O)C#Cc1ccccc1 [Example AAA65, (R)-2-Methyl-4-(thiazol-2-yl)-1-(3-phenylpropiolyl)piperazine] | 93
CC1CN(c2nccs2)CCN1C(=O)C#Cc1ccccc1.Cl (centres unmarked) [Example AAA66, 2-Methyl-4-(thiazol-2-yl)-1-(3-phenylpropiolyl)piperazine hydrochloride] | 93
Cc1cccc(C#CC(=O)N2CCN(c3nccs3)CC2C)c1.Cl (centres unmarked) [Example AAA67, 2-Methyl-4-(thiazol-2-yl)-1-(3-(3-tolyl)propiolyl)piperazine hydrochloride] | 94
O=C(C#CC1CCCCC1)N1CCN(c2nccs2)CC1 [Example AAA69, 4-(Thiazol-2-yl)-1-(3-cyclohexylpropiolyl)piperazine] | 72
O=C(C#Cc1ccccc1)N1CCN(c2nccs2)CC1c1ccccc1 (centres unmarked) [Example AAA72, 2-Phenyl-4-(thiazol-2-yl)-1-(3-phenylpropiolyl)piperazine] | 81
O=C(C#Cc1ccco1)N1CCN(c2nccs2)CC1 [Example AAA73, 4-(Thiazol-2-yl)-1-(3-(2-furyl)propiolyl)piperazine] | 74
C[C@@H]1CN(c2nccs2)C[C@H](C)N1C(=O)C#Cc1ccccc1 [Example AAA75, cis-2,6-Dimethyl-4-(thiazol-2-yl)-1-(3-phenylpropiolyl)piperazine] | 97
CCOC(=O)c1csc(N2CCN(C(=O)C#Cc3ccccc3)CC2)n1 [Example AAA77, 4-(4-Carboxy-thiazol-2-yl)-1-(3-phenylpropiolyl)piperazine ethyl ester] | 89
CNC(=O)c1cnc(N2CCN(C(=O)C#Cc3ccccc3)CC2)s1 [Example AAA80, 4-(5-Methylaminocarbonylthiazol-2-yl)-1-(3-phenylpropiolyl)piperazine] | 76
CN(C)C(=O)c1cnc(N2CCN(C(=O)C#Cc3ccccc3)CC2)s1 [Example AAA81, 4-(5-Dimethylaminocarbonylthiazol-2-yl)-1-(3-phenylpropiolyl)piperazine] | 72

Now from value to molecule:

mGluR5-receptor (% inhibition 10 μM) in pigs [%] | SMILES
37 | O=C(C#Cc1ccccc1)N1CCN(c2nc(-c3ccccc3)ns2)CC1 [Example AAA82, 4-(3-Phenyl-1,2,4-thiadiazol-5-yl)-1-(3-phenylpropiolyl)piperazine]
93 | O=C(C#Cc1ccccc1)N1CCN(c2nc(Cc3ccc(F)cc3)ns2)CC1 [Example AAA85, 4-(3-(4-Fluorobenzyl)-1,2,4-thiadiazol-5-yl)-1-(3-phenylpropiolyl)piperazine]
31 | O=C(C#Cc1ccccc1)N1CCN(c2ncc([N+](=O)[O-])s2)CC1 [Example AAA86, 4-(5-Nitrothiazol-2-yl)-1-(3-phenylpropiolyl)piperazine]
94 | Cc1cnc(N2CCN(C(=O)C#Cc3ccccc3)CC2)s1 [Example AAA88, 4-(5-Methylthiazol-2-yl)-1-(3-phenylpropiolyl)piperazine]
86 | Cc1nc(N2CCN(C(=O)C#Cc3ccccc3)CC2)sc1C [Example AAA89, 4-(4,5-Dimethylthiazol-2-yl)-1-(3-phenylpropiolyl)piperazine]
87 | Cc1csc(N2CCN(C(=O)C#Cc3ccccc3)CC2)n1 [Example AAA92, 4-(4-Methylthiazol-2-yl)-1-(3-phenylpropiolyl)piperazine]
52 | O=C(C#Cc1ccccc1)N1CCN(c2nc(C(F)(F)F)cs2)CC1 [Example AAA93, 4-(4-Trifluoromethylthiazol-2-yl)-1-(3-phenylpropiolyl)piperazine]
91 | O=C(C#Cc1ccccc1)N1CCN(c2nc(Cl)cs2)CC1 [Example AAA94, 4-(4-Chlorothiazol-2-yl)-1-(3-phenylpropiolyl)piperazine]
58 | O=C(C#Cc1ccccc1)N1CCN(c2ncc(Cl)s2)CC1 [Example AAA95, 4-(5-Chlorothiazol-2-yl)-1-(3-phenylpropiolyl)piperazine]
87 | O=C(C#Cc1ccccc1)N1CCN(c2nc(-c3ccccc3)cs2)CC1 [Example AAA99, 4-(4-Phenylthiazol-2-yl)-1-(3-phenylpropiolyl)piperazine]
30 | CS(=O)(=O)c1nsc(N2CCN(C(=O)C#Cc3ccccc3)CC2)n1 [Example AAA00101, 4-(3-Methansulfonyl-1,2,4-thiadiazol-5-yl)-1-(3-phenylpropiolyl)piperazine]
61 | COc1nsc(N2CCN(C(=O)C#Cc3ccccc3)CC2)n1 [Example AAA00102, 4-(3-Methoxy-1,2,4-thiadiazol-5-yl)-1-(3-phenylpropiolyl)piperazine]
83 | O=C(C#Cc1ccccc1)N1CCN(c2ncns2)CC1 [Example AAA00103, 4-(1,2,4-Thiadiazol-5-yl)-1-(3-phenylpropiolyl)piperazine]
91 | Cc1nsc(N2CCN(C(=O)C#Cc3ccccc3)CC2)n1 [Example AAA00104, 4-(3-Methyl-1,2,4-thiadiazol-5-yl)-1-(3-phenylpropiolyl)piperazine]
65 | O=C(C#Cc1ccccc1)N1CCN(c2nc(C(F)(F)F)ns2)CC1 [Example AAA00105, 4-(3-Trifluoromethyl-1,2,4-thiadiazol-5-yl)-1-(3-phenylpropiolyl)piperazine]

same assay, conditions: Table II; unit inferred

SMILES | IC50 [nM]
O=C(C#Cc1cccc(C(F)(F)F)c1)N1CCN(c2nccs2)CC1 [Example AAA58, 4-(Thiazol-2-yl)-1-(3-(3-trifluoromethylphenyl)propiolyl)piperazine hydrochloride] | 240
CCCCCC#CC(=O)N1CCN(c2nccs2)CC1 [Example AAA60, 4-(Thiazol-2-yl)-1-(3-pentylpropiolyl)piperazine] | 1850
CCC1CN(c2nccs2)CCN1C(=O)C#Cc1ccccc1 (centres unmarked) [Example AAA71, 2-Ethyl-4-(thiazol-2-yl)-1-(3-phenylpropiolyl)piperazine] | 38
O=C(C#Cc1ccoc1)N1CCN(c2nccs2)CC1 [Example AAA74, 4-(Thiazol-2-yl)-1-(3-(3-furyl)propiolyl)piperazine] | 3190
CCOC(=O)c1cnc(N2CCN(C(=O)C#Cc3ccccc3)CC2)s1 [Example AAA76, 4-(5-Carboxy-thiazol-2-yl)-1-(3-phenylpropiolyl)piperazine ethyl ester] | 170

Continued, values first:

IC50 [nM] | SMILES
360 | O=C(C#Cc1ccccc1)N1CCN(c2ncc(Br)s2)CC1 [Example AAA96, 4-(5-Bromothiazol-2-yl)-1-(3-phenylpropiolyl)piperazine]
720 | O=C(C#Cc1ccccc1)N1CCN(c2nc(Br)cs2)CC1 [Example AAA97, 4-(4-Bromothiazol-2-yl)-1-(3-phenylpropiolyl)piperazine]
